Measured values from ChEMBL document CHEMBL4177608, “Design and synthesis of benzimidazole-based Rho kinase inhibitors for the treatment of glaucoma” (Bioorg Med Chem, 2017).
≈ marks a conversion by molar mass, not a printed value.

Key:
Rattus norvegicus [1] = species: Rattus norvegicus; experiment: Reduction in intraocular pressure in Wistar rat model of dexamethasone-induced elevated IOP assessed as change in intraocular pressure in contralateral eye at 1 % w/v after 1 hr by tonometry (reference value: 0%); assay type: ADME, organism-based; design: scale not given: the % may be the effect or the level left; conditions: in vivo, topical_or_ocular
Rattus norvegicus [2] = species: Rattus norvegicus; experiment: Reduction in intraocular pressure in Wistar rat model of dexamethasone-induced elevated IOP assessed as change in intraocular pressure in contralateral eye at 1 % w/v after 2.5 hrs by tonometry (reference value: 0%); assay type: ADME, organism-based; design: scale not given: the % may be the effect or the level left; conditions: in vivo
Rattus norvegicus [3] = species: Rattus norvegicus; experiment: Reduction in intraocular pressure in Wistar rat model of dexamethasone-induced elevated IOP assessed as change in intraocular pressure at 1 % w/v after 2 hrs by tonometry (reference value: 0%); assay type: functional; design: scale not given: the % may be the effect or the level left
Rattus norvegicus [4] = species: Rattus norvegicus; experiment: Reduction in intraocular pressure in Wistar rat model of dexamethasone-induced elevated IOP assessed as change in intraocular pressure in contralateral eye at 1 % w/v after 3 hrs by tonometry (reference value: 0%); assay type: ADME, organism-based; design: scale not given: the % may be the effect or the level left; conditions: in vivo
Rattus norvegicus [5] = species: Rattus norvegicus; experiment: Reduction in intraocular pressure in Wistar rat model of dexamethasone-induced elevated IOP assessed as change in intraocular pressure at 1 % w/v after 0.5 hrs by tonometry (reference value: 0%); assay type: functional; design: scale not given: the % may be the effect or the level left
[6] = Antioxidant activity assessed as DPPH free radical scavenging activity at 25 ug/ml after 30 mins by spectrophotometric analysis; assay type: functional
[7] = Antioxidant activity assessed as DPPH free radical scavenging activity after 30 mins by spectrophotometric analysis; assay type: functional
Rattus norvegicus [8] = species: Rattus norvegicus; experiment: Reduction in intraocular pressure in Wistar rat model of dexamethasone-induced elevated IOP assessed as peak effect time for reduction in intraocular pressure at 1 % w/v by tonometry; assay type: functional, organism-based
[9] = Antioxidant activity assessed as DPPH free radical scavenging activity at 5 ug/ml after 30 mins by spectrophotometric analysis; assay type: functional
Rattus norvegicus [10] = species: Rattus norvegicus; experiment: Reduction in intraocular pressure in Wistar rat model of dexamethasone-induced elevated IOP assessed as change in intraocular pressure at 1 % w/v after 1.5 hrs by tonometry (reference value: 0%); assay type: functional; design: scale not given: the % may be the effect or the level left
Rattus norvegicus [11] = species: Rattus norvegicus; experiment: Reduction in intraocular pressure in Wistar rat model of dexamethasone-induced elevated IOP assessed as reduction in intraocular pressure at peak effect time at 1 % w/v by tonometry; assay type: functional; design: scale not given: the % may be the effect or the level left
Rattus norvegicus [12] = species: Rattus norvegicus; experiment: Reduction in intraocular pressure in Wistar rat model of dexamethasone-induced elevated IOP assessed as change in intraocular pressure in contralateral eye at 1 % w/v after 2 hrs by tonometry (reference value: 0%); assay type: ADME, organism-based; design: scale not given: the % may be the effect or the level left; conditions: in vivo
Rattus norvegicus [13] = species: Rattus norvegicus; experiment: Reduction in intraocular pressure in Wistar rat model of dexamethasone-induced elevated IOP assessed as change in intraocular pressure in contralateral eye at 1 % w/v after 4 hrs by tonometry (reference value: 0%); assay type: ADME, organism-based; design: scale not given: the % may be the effect or the level left; conditions: in vivo
Rattus norvegicus [14] = species: Rattus norvegicus; experiment: Reduction in intraocular pressure in Wistar rat model of dexamethasone-induced elevated IOP assessed as change in intraocular pressure at 1 % w/v after 2.5 hrs by tonometry (reference value: 0%); assay type: functional; design: scale not given: the % may be the effect or the level left
Rattus norvegicus [15] = species: Rattus norvegicus; experiment: Reduction in intraocular pressure in Wistar rat model of dexamethasone-induced elevated IOP assessed as change in intraocular pressure at 1 % w/v after 3 hrs by tonometry (reference value: 0%); assay type: functional; design: scale not given: the % may be the effect or the level left
Rattus norvegicus [16] = species: Rattus norvegicus; experiment: Reduction in intraocular pressure in Wistar rat model of dexamethasone-induced elevated IOP assessed as change in intraocular pressure at 1 % w/v after 4 hrs by tonometry (reference value: 0%); assay type: functional; design: scale not given: the % may be the effect or the level left
Rattus norvegicus [17] = species: Rattus norvegicus; experiment: Reduction in intraocular pressure in Wistar rat model of dexamethasone-induced elevated IOP assessed as change in intraocular pressure at 1 % w/v after 5 hrs by tonometry (reference value: 0%); assay type: functional; design: scale not given: the % may be the effect or the level left
[18] = Antioxidant activity assessed as DPPH free radical scavenging activity at 150 ug/ml after 30 mins by spectrophotometric analysis; assay type: functional
[19] = Antioxidant activity assessed as DPPH free radical scavenging activity at 50 ug/ml after 30 mins by spectrophotometric analysis; assay type: functional
Rattus norvegicus [20] = species: Rattus norvegicus; experiment: Reduction in intraocular pressure in Wistar rat model of dexamethasone-induced elevated IOP assessed as change in intraocular pressure at 1 % w/v after 6 hrs by tonometry (reference value: 0%); assay type: functional; design: scale not given: the % may be the effect or the level left
[21] = 1-Octanol/water partition coefficient, log P of compound at 2 mg after 24 hrs by spectrophotometry based shake flask method; assay type: physicochemical
Rattus norvegicus [22] = species: Rattus norvegicus; experiment: Reduction in intraocular pressure in Wistar rat model of dexamethasone-induced elevated IOP assessed as change in intraocular pressure at 1 % w/v after 1 hr by tonometry (reference value: 0%); assay type: functional; design: scale not given: the % may be the effect or the level left
Rattus norvegicus [23] = species: Rattus norvegicus; experiment: Reduction in intraocular pressure in Wistar rat model of dexamethasone-induced elevated IOP assessed as change in intraocular pressure in contralateral eye at 1 % w/v after 6 hrs by tonometry (reference value: 0%); assay type: ADME, organism-based; design: scale not given: the % may be the effect or the level left; conditions: in vivo
Rattus norvegicus [24] = species: Rattus norvegicus; experiment: Reduction in intraocular pressure in Wistar rat model of dexamethasone-induced elevated IOP assessed as onset time for reduction in intraocular pressure at 1 % w/v by tonometry; assay type: functional
[25] = Antioxidant activity assessed as DPPH free radical scavenging activity at 100 ug/ml after 30 mins by spectrophotometric analysis; assay type: functional
Rattus norvegicus [26] = species: Rattus norvegicus; experiment: Reduction in intraocular pressure in Wistar rat model of dexamethasone-induced elevated IOP assessed as change in intraocular pressure in contralateral eye at 1 % w/v after 1.5 hrs by tonometry (reference value: 0%); assay type: ADME, organism-based; design: scale not given: the % may be the effect or the level left; conditions: in vivo
Rattus norvegicus [27] = species: Rattus norvegicus; experiment: Reduction in intraocular pressure in Wistar rat model of dexamethasone-induced elevated IOP assessed as change in intraocular pressure in contralateral eye at 1 % w/v after 5 hrs by tonometry (reference value: 0%); assay type: ADME, organism-based; design: scale not given: the % may be the effect or the level left; conditions: in vivo
Rattus norvegicus [28] = species: Rattus norvegicus; experiment: Reduction in intraocular pressure in Wistar rat model of dexamethasone-induced elevated IOP assessed as change in intraocular pressure in contralateral eye at 1 % w/v after 0.5 hrs by tonometry (reference value: 0%); assay type: ADME, organism-based; design: scale not given: the % may be the effect or the level left; conditions: in vivo, topical_or_ocular
[29] = Antioxidant activity assessed as DPPH free radical scavenging activity at 200 ug/ml after 30 mins by spectrophotometric analysis; assay type: functional

SMILES	Activity (Rattus norvegicus [1]) [%]	Activity (Rattus norvegicus [2]) [%]	Activity (Rattus norvegicus [4]) [%]	IC50 [7] [µg/mL]	Activity (Rattus norvegicus [12]) [%]	Activity (Rattus norvegicus [13]) [%]	Activity (Rattus norvegicus [3]) [%]	Activity (Rattus norvegicus [5]) [%]	Activity [6] [%]	Tmax (Rattus norvegicus [8]) [h]	Activity [9] [%]	Activity (Rattus norvegicus [10]) [%]	Activity (Rattus norvegicus [11]) [%]	Activity (Rattus norvegicus [14]) [%]	Activity (Rattus norvegicus [15]) [%]	Activity (Rattus norvegicus [16]) [%]	Activity (Rattus norvegicus [17]) [%]	Activity [18] [%]	Activity [19] [%]	Activity (Rattus norvegicus [20]) [%]	also measured
O=C(CN1CCN(C(=O)c2ccco2)CC1)Nc1nc2ccccc2[nH]1	1.6	4.15	2.3	116.48 (≈ 330 µM)	3.1	0.8	11.1	3.9	23.4	2	14.5	8.8	48.33	14.92	8.63	6.6	4.47	59	35.9	1.27	logP at 24 h [21]: 2.02; Activity (Rattus norvegicus [22]): 4.6%; Activity (Rattus norvegicus [23]): 0%; Time (Rattus norvegicus [24]): 0.5 h; Activity [25]: 49%; Activity (Rattus norvegicus [26]): 2.03%; Activity (Rattus norvegicus [27]): 0%; Activity (Rattus norvegicus [28]): 0.4%; Activity [29]: 71%
O=C1O[C@H]([C@@H](O)CO)C(O)=C1O [ASCORBIC ACID]	–	–	–	15.74 (≈ 89.4 µM)	–	–	–	–	54.9	–	39.5	–	–	–	–	–	–	92.9	62.5	–	Activity [25]: 79.4%; Activity [29]: 97.9%
O=C(CN1CCN(Cc2ccccc2)CC1)Nc1nc2ccccc2[nH]1	2.47	2.72	2.32	134.71 (≈ 386 µM)	3.2	1.26	8.65	3.4	22.1	2.5	6.28	6.85	35.52	11.45	10.5	5.66	2.9	52.6	33.3	0.9	logP at 24 h [21]: 1.97; Activity (Rattus norvegicus [22]): 5.58%; Activity (Rattus norvegicus [23]): 0.47%; Time (Rattus norvegicus [24]): 0.5 h; Activity [25]: 47%; Activity (Rattus norvegicus [26]): 3.13%; Activity (Rattus norvegicus [27]): 0.83%; Activity (Rattus norvegicus [28]): 1.67%; Activity [29]: 63.9%
Cl.O=S(=O)(c1cccc2cnccc12)N1CCCNCC1 [FASUDIL HYDROCHLORIDE]	1.95	4.62	1.85	–	5.57	0.3	16.67	4.62	–	2	–	10.17	54.84	9.71	9	7.8	3.42	–	–	0.65	logP at 24 h [21]: 1.73; Activity (Rattus norvegicus [22]): 5.4%; Activity (Rattus norvegicus [23]): 0%; Time (Rattus norvegicus [24]): 0.5 h; Activity (Rattus norvegicus [26]): 3.3%; Activity (Rattus norvegicus [27]): 0%; Activity (Rattus norvegicus [28]): 0.97%

Now from value to compound, other results behind:

Activity (Rattus norvegicus [1]) [%]	Activity (Rattus norvegicus [2]) [%]	Activity (Rattus norvegicus [4]) [%]	IC50 [7] [µg/mL]	Activity (Rattus norvegicus [12]) [%]	Activity (Rattus norvegicus [13]) [%]	SMILES	Activity (Rattus norvegicus [3]) [%]	Activity (Rattus norvegicus [5]) [%]	Activity [6] [%]	Tmax (Rattus norvegicus [8]) [h]	Activity [9] [%]	Activity (Rattus norvegicus [10]) [%]	Activity (Rattus norvegicus [11]) [%]	Activity (Rattus norvegicus [14]) [%]	Activity (Rattus norvegicus [15]) [%]	Activity (Rattus norvegicus [16]) [%]	Activity (Rattus norvegicus [17]) [%]	Activity [18] [%]	Activity [19] [%]	Activity (Rattus norvegicus [20]) [%]	also measured
1.85	2.1	0.42	107.77 (≈ 319 µM)	3.97	0	O=C(CN1CCN(c2ncccn2)CC1)Nc1nc2ccccc2[nH]1	15.45	3.5	20.4	2	8.77	10.92	50	11.77	9.1	5.62	3.15	68.4	31	0.35	logP at 24 h [21]: 1.85; Activity (Rattus norvegicus [22]): 7.42%; Activity (Rattus norvegicus [23]): 0%; Time (Rattus norvegicus [24]): 0.5 h; Activity [25]: 46.5%; Activity (Rattus norvegicus [26]): 2.05%; Activity (Rattus norvegicus [27]): 0%; Activity (Rattus norvegicus [28]): 0.95%; Activity [29]: 81.8%
2.08	6.57	2.15	137.54 (≈ 503 µM)	5.75	0.55	CN1CCN(CC(=O)Nc2nc3ccccc3[nH]2)CC1	12.97	5.47	19.9	2.5	11	11.95	44.68	13.57	10.3	4.45	1.35	54.3	33.5	0.3	logP at 24 h [21]: 1.67; Activity (Rattus norvegicus [22]): 9.77%; Activity (Rattus norvegicus [23]): 0%; Time (Rattus norvegicus [24]): 0.5 h; Activity [25]: 45%; Activity (Rattus norvegicus [26]): 4%; Activity (Rattus norvegicus [27]): 0%; Activity (Rattus norvegicus [28]): 1.08%; Activity [29]: 61.6%
2.07	3.97	2	144.19 (≈ 395 µM)	3.57	0.43	COc1ccc(N2CCN(CC(=O)Nc3nc4ccccc4[nH]3)CC2)cc1	9.42	3.8	13.3	2.5	7.24	6.15	46.92	15.32	10.08	7	3.37	53.2	25.8	1.33	logP at 24 h [21]: 2.65; Activity (Rattus norvegicus [22]): 5.67%; Activity (Rattus norvegicus [23]): 0%; Time (Rattus norvegicus [24]): 0.5 h; Activity [25]: 38.9%; Activity (Rattus norvegicus [26]): 2.83%; Activity (Rattus norvegicus [27]): 0%; Activity (Rattus norvegicus [28]): 1.2%; Activity [29]: 63.7%
1.2	5.23	4.2	95.49 (≈ 251 µM)	4.87	1.6	O=C(CN1CCN(c2ccc([N+](=O)[O-])cc2)CC1)Nc1nc2ccccc2[nH]1	11.88	3.33	33.9	2.5	16.1	7.68	51.56	16	10.52	7.82	4.75	64.9	44.8	1.2	logP at 24 h [21]: 1.94; Activity (Rattus norvegicus [22]): 5.85%; Activity (Rattus norvegicus [23]): 0%; Time (Rattus norvegicus [24]): 0.5 h; Activity [25]: 51.7%; Activity (Rattus norvegicus [26]): 3.5%; Activity (Rattus norvegicus [27]): 0%; Activity (Rattus norvegicus [28]): 0.83%; Activity [29]: 76.7%
